Patent publication US12102608B2, “Composition of acylethanolamides from olive oil fatty acids” (EPITECH GROUP S.P.A., priority 2021, dated 2024)

Legend:
Type in all cases: in vivo, rat
[1] = system: paw edema of animals injected with CAR; assay: Carrageenan-induced paw edema, plethysmometer; conditions: per os 30 min before CAR in 2% CMC; PEA 2 mg/kg, OEA 6 mg/kg, complex/silica 20 mg/kg; 1 h to 6 h after CAR; FIG. 1
Experimental: The study was conducted on male Sprague-Dawley rats (200-235 g; Harlan, Nossan, Italy) fed ad libitum and housed in cages with a controlled sleep/wake cycle. Before the start of the experimentation, the animals were subjected to an acclimatization period of 1 week considering all the experimental procedures and protocols, compliant with the principles of the care of laboratory animals approved by the Italian Ministry of Health and respecting the guidelines of the European Economic Community. The animals were subjected to a single injection of 100 μl of saline solution containing 1% Carrageenan (CAR) in one of the two hind legs. Paw edema was measured with a plethysmometer (Ugo Basile, Comerio, Varese, Italy) (Salvemini D et al. Nitric oxide: A key mediator in the early and late phase of carrageenan-induced rat paw inflammation. Br. J. Pharmacol. 1996; 118: 829-838) before the CAR injection and after the inoculation thereof every hour for 6 h. The hyperalgesic responses to heat were assessed using the plantar test with a cut-off latency of 20 sec to avoid tissue damage. […] The suspension latency period of the injected paw was determined by an electronic circuit and the results were expressed in seconds. Edema was expressed as increased paw volume (mL) after the CAR injection with respect to the pre-injection value for all the animals. […]

[2] = system: CAR-induced thermal hyperalgesia; assay: Plantar test, thermal hyperalgesia after CAR injection; conditions: per os 30 min before CAR in 2% CMC; PEA 2 mg/kg, OEA 6 mg/kg, complex/silica 20 mg/kg; 1 h to 6 h after CAR, vs. vehicle; FIG. 2
Experimental: The study was conducted on male Sprague-Dawley rats (200-235 g; Harlan, Nossan, Italy) fed ad libitum and housed in cages with a controlled sleep/wake cycle. Before the start of the experimentation, the animals were subjected to an acclimatization period of 1 week considering all the experimental procedures and protocols, compliant with the principles of the care of laboratory animals approved by the Italian Ministry of Health and respecting the guidelines of the European Economic Community. The animals were subjected to a single injection of 100 μl of saline solution containing 1% Carrageenan (CAR) in one of the two hind legs. Paw edema was measured with a plethysmometer (Ugo Basile, Comerio, Varese, Italy) (Salvemini D et al. Nitric oxide: A key mediator in the early and late phase of carrageenan-induced rat paw inflammation. Br. J. Pharmacol. 1996; 118: 829-838) before the CAR injection and after the inoculation thereof every hour for 6 h. The hyperalgesic responses to heat were assessed using the plantar test with a cut-off latency of 20 sec to avoid tissue damage. The rats were individually housed in plexiglass compartments to acclimatize them before subjecting them to thermal stimulation. The suspension latency period of the injected paw was determined by an electronic circuit and the results were expressed in seconds. […]

[3] = system: tissue damage of the paw of animals subjected to CAR injection; assay: Histology of paw tissue (Hematoxylin/Eosin), tissue damage score; conditions: per os 30 min before CAR; PEA 2 mg/kg, OEA 6 mg/kg, complex/silica 20 mg/kg; tissue taken 6 h after CAR; FIG. 3
Experimental: (§1) The study was conducted on male Sprague-Dawley rats (200-235 g; Harlan, Nossan, Italy) fed ad libitum and housed in cages with a controlled sleep/wake cycle. Before the start of the experimentation, the animals were subjected to an acclimatization period of 1 week considering all the experimental procedures and protocols, compliant with the principles of the care of laboratory animals approved by the Italian Ministry of Health and respecting the guidelines of the European Economic Community. […]

[4] = system: mast cells in the paw tissue; assay: Toluidine Blue staining of mast cells in paw tissue; conditions: per os 30 min before CAR; PEA 2 mg/kg, OEA 6 mg/kg, complex/silica 20 mg/kg; 6 h after CAR; PEA and OEA compared with sham; FIG. 4
Experimental: as §1

Compound | edema (increased paw volume) caused by CAR [1] | CAR-induced thermal hyperalgesia (plantar test latency) [2] | paw tissue damage (E/E histological score) [3] | number of mast cells / mast cell infiltrate in paw tissue [4]
CCCCCCCCCCCCCCCC(=O)NCCO [PEA, palmitoylethanolamide] | No significant reduction in the edema | No analgesic effect | not capable of protecting the paw tissues | significant increase in the number of mast cells
CCCCCCCC/C=C\CCCCCCCC(=O)NCCO [OEA, oleoylethanolamide] | No significant reduction in the edema | No analgesic effect | not capable of protecting the paw tissues | significant increase in the number of mast cells
